Data as given in PubChem BioAssay AID2060882 (Molecular Pharmacology Branch, DTP, NCI, 2025).

Test system: 898857-211-R-J1-PDC complex spheroids, growth % test/control
Experiment: Anticancer human tumor 898857-211-R-J1-PDC patient-derived melanoma cell line growth inhibition [RAS]
Conditions: for IC50: curve of first compound; for viability, T/C: stronger effect = lower value
How it was run: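 Tumour cells grown as complex spheroids with HUVEC endothelial cells and mesenchymal stem cells, treated with RAS pathway inhibitor combinations. Each agent spans half-log steps from near clinical Cmax, or 10 microM where Cmax is unknown.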

[1] = second compound 0.000949 µM, first compound 0.0316 µM
[2] = second compound 0.000949 µM, first compound 0.1 µM
[3] = second compound 0.000949 µM, first compound 0.316 µM
[4] = second compound 0.000949 µM, first compound 1 µM
[5] = second compound 0.000949 µM, first compound 3.16 µM
[6] = second compound 0.000949 µM, first compound 10 µM
[7] = second compound 0.003 µM, first compound 0.0316 µM
[8] = second compound 0.003 µM, first compound 0.1 µM
[9] = second compound 0.003 µM, first compound 0.316 µM
[10] = second compound 0.003 µM, first compound 1 µM
[11] = second compound 0.003 µM, first compound 3.16 µM
[12] = second compound 0.003 µM, first compound 10 µM
[13] = second compound 0.00949 µM, first compound 0.0316 µM
[14] = second compound 0.00949 µM, first compound 0.1 µM
[15] = second compound 0.00949 µM, first compound 0.316 µM
[16] = second compound 0.00949 µM, first compound 1 µM
[17] = second compound 0.00949 µM, first compound 3.16 µM
[18] = second compound 0.00949 µM, first compound 10 µM
[19] = second compound 0.03 µM, first compound 0.0316 µM
[20] = second compound 0.03 µM, first compound 0.1 µM
[21] = second compound 0.03 µM, first compound 0.316 µM
[22] = second compound 0.03 µM, first compound 1 µM
[23] = second compound 0.03 µM, first compound 3.16 µM
[24] = second compound 0.03 µM, first compound 10 µM
[25] = second compound 0.0949 µM, first compound 0.0316 µM
[26] = second compound 0.0949 µM, first compound 0.1 µM
[27] = second compound 0.0949 µM, first compound 0.316 µM
[28] = second compound 0.0949 µM, first compound 1 µM
[29] = second compound 0.0949 µM, first compound 3.16 µM
[30] = second compound 0.0949 µM, first compound 10 µM
[31] = second compound 0.3 µM, first compound 0.0316 µM
[32] = second compound 0.3 µM, first compound 0.1 µM
[33] = second compound 0.3 µM, first compound 0.316 µM
[34] = second compound 0.3 µM, first compound 1 µM
[35] = second compound 0.3 µM, first compound 3.16 µM
[36] = second compound 0.3 µM, first compound 10 µM
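Also: spheroids exposed to compound for seven days before readout.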
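For viability, T/C in this document: 100% = DMSO vehicle control wells.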

CC1(O)CCCC1n1c(=O)c(C(F)F)cc2cnc(NC3CCN(S(C)(=O)=O)CC3)nc21 (stereo not drawn) + CCn1c(-c2cc(N3CCN(C)CC3)cnc2C(C)OC)c2c3cc(ccc31)-c1csc(n1)CC(NC(=O)C1CC1C)C(=O)N1CCCC(N1)C(=O)OCC(C)(C)C2
IC50 (second compound 0.000949 µM): 121 nM | IC50 (second compound 0.003 µM): 168 nM | IC50 (second compound 0.00949 µM): 138 nM | IC50 (second compound 0.03 µM): 124 nM | IC50 (second compound 0.0949 µM): 188 nM | IC50 (second compound 0.3 µM): 144 nM | viability, T/C [1]: 92.9% | viability, T/C [2]: 49.7% | viability, T/C [3]: 35.1% | viability, T/C [4]: 38.6% | viability, T/C [5]: 36.2% | viability, T/C [6]: 15.2% | viability, T/C [7]: 90.7% | viability, T/C [8]: 58.5% | viability, T/C [9]: 33.5% | viability, T/C [10]: 39.4% | viability, T/C [11]: 35.1% | viability, T/C [12]: 17.2% | viability, T/C [13]: 78.2% | viability, T/C [14]: 51% | viability, T/C [15]: 37.6% | viability, T/C [16]: 34.7% | viability, T/C [17]: 37.5% | viability, T/C [18]: 15.4% | viability, T/C [19]: 100% | viability, T/C [20]: 49.5% | viability, T/C [21]: 38.4% | viability, T/C [22]: 36.5% | viability, T/C [23]: 36.7% | viability, T/C [24]: 16.6% | viability, T/C [25]: 96% | viability, T/C [26]: 53.6% | viability, T/C [27]: 43.2% | viability, T/C [28]: 38.7% | viability, T/C [29]: 37.2% | viability, T/C [30]: 16.9% | viability, T/C [31]: 107% | viability, T/C [32]: 55.4% | viability, T/C [33]: 33.6% | viability, T/C [34]: 36.3% | viability, T/C [35]: 34.2% | viability, T/C [36]: 16%

CCC(CC)c1cc(NC2CCC(N)C2)n2nccc2n1 (stereo not drawn) + CCn1c(-c2cc(N3CCN(C)CC3)cnc2C(C)OC)c2c3cc(ccc31)-c1csc(n1)CC(NC(=O)C1CC1C)C(=O)N1CCCC(N1)C(=O)OCC(C)(C)C2
IC50 (second compound 0.000949 µM): 594 nM | IC50 (second compound 0.003 µM): 589 nM | IC50 (second compound 0.00949 µM): 609 nM | IC50 (second compound 0.03 µM): 571 nM | IC50 (second compound 0.0949 µM): 615 nM | IC50 (second compound 0.3 µM): 604 nM | viability, T/C [1]: 113% | viability, T/C [2]: 100% | viability, T/C [3]: 87.1% | viability, T/C [4]: 19.7% | viability, T/C [5]: 0.45% | viability, T/C [6]: 0.75% | viability, T/C [7]: 95.1% | viability, T/C [8]: 94% | viability, T/C [9]: 82% | viability, T/C [10]: 22.8% | viability, T/C [11]: 0.27% | viability, T/C [12]: 0.25% | viability, T/C [13]: 92.2% | viability, T/C [14]: 105% | viability, T/C [15]: 84.4% | viability, T/C [16]: 23.6% | viability, T/C [17]: 0.8% | viability, T/C [18]: 0.2% | viability, T/C [19]: 102% | viability, T/C [20]: 89.5% | viability, T/C [21]: 80.9% | viability, T/C [22]: 21.2% | viability, T/C [23]: 0.38% | viability, T/C [24]: 0.27% | viability, T/C [25]: 109% | viability, T/C [26]: 102% | viability, T/C [27]: 86.3% | viability, T/C [28]: 23.8% | viability, T/C [29]: 0.81% | viability, T/C [30]: 0.19% | viability, T/C [31]: 104% | viability, T/C [32]: 105% | viability, T/C [33]: 84.8% | viability, T/C [34]: 22.9% | viability, T/C [35]: 0.32% | viability, T/C [36]: 0.26%

Cc1nc(N2CCC3(CC2)COC(C)C3N)c(CO)nc1Sc1ccnc(N)c1Cl (stereo not drawn) + CCn1c(-c2cc(N3CCN(C)CC3)cnc2C(C)OC)c2c3cc(ccc31)-c1csc(n1)CC(NC(=O)C1CC1C)C(=O)N1CCCC(N1)C(=O)OCC(C)(C)C2
IC50 (second compound 0.000949 µM): > 10000 nM | IC50 (second compound 0.003 µM): > 10000 nM | IC50 (second compound 0.00949 µM): > 10000 nM | IC50 (second compound 0.03 µM): > 10000 nM | IC50 (second compound 0.0949 µM): > 10000 nM | IC50 (second compound 0.3 µM): > 10000 nM | viability, T/C [1]: 99.6% | viability, T/C [2]: 98% | viability, T/C [3]: 93.6% | viability, T/C [4]: 94.2% | viability, T/C [5]: 94.3% | viability, T/C [6]: 86.1% | viability, T/C [7]: 96.1% | viability, T/C [8]: 92.2% | viability, T/C [9]: 105% | viability, T/C [10]: 96.4% | viability, T/C [11]: 92.2% | viability, T/C [12]: 85.5% | viability, T/C [13]: 96% | viability, T/C [14]: 110% | viability, T/C [15]: 112% | viability, T/C [16]: 103% | viability, T/C [17]: 96.9% | viability, T/C [18]: 77.7% | viability, T/C [19]: 109% | viability, T/C [20]: 107% | viability, T/C [21]: 106% | viability, T/C [22]: 97.6% | viability, T/C [23]: 99.5% | viability, T/C [24]: 74.8% | viability, T/C [25]: 115% | viability, T/C [26]: 116% | viability, T/C [27]: 110% | viability, T/C [28]: 107% | viability, T/C [29]: 107% | viability, T/C [30]: 84.7% | viability, T/C [31]: 90.7% | viability, T/C [32]: 105% | viability, T/C [33]: 99.2% | viability, T/C [34]: 111% | viability, T/C [35]: 104% | viability, T/C [36]: 76.9%

NC1c2ccccc2OC12CCN(c1cnc3c(N4CCCc5ncccc54)n[nH]c3n1)CC2 (stereo not drawn) + CCn1c(-c2cc(N3CCN(C)CC3)cnc2C(C)OC)c2c3cc(ccc31)-c1csc(n1)CC(NC(=O)C1CC1C)C(=O)N1CCCC(N1)C(=O)OCC(C)(C)C2
IC50 (second compound 0.000949 µM): > 10000 nM | IC50 (second compound 0.003 µM): > 10000 nM | IC50 (second compound 0.00949 µM): > 10000 nM | IC50 (second compound 0.03 µM): > 10000 nM | IC50 (second compound 0.0949 µM): 8350 nM | IC50 (second compound 0.3 µM): 8210 nM | viability, T/C [1]: 101% | viability, T/C [2]: 87.5% | viability, T/C [3]: 91.5% | viability, T/C [4]: 81.9% | viability, T/C [5]: 81.4% | viability, T/C [6]: 51% | viability, T/C [7]: 103% | viability, T/C [8]: 87.9% | viability, T/C [9]: 101% | viability, T/C [10]: 85.7% | viability, T/C [11]: 81.3% | viability, T/C [12]: 55.5% | viability, T/C [13]: 87.7% | viability, T/C [14]: 97.7% | viability, T/C [15]: 92.1% | viability, T/C [16]: 102% | viability, T/C [17]: 74.3% | viability, T/C [18]: 56.7% | viability, T/C [19]: 91.5% | viability, T/C [20]: 87.8% | viability, T/C [21]: 93.8% | viability, T/C [22]: 73.5% | viability, T/C [23]: 81.9% | viability, T/C [24]: 50% | viability, T/C [25]: 113% | viability, T/C [26]: 99.8% | viability, T/C [27]: 102% | viability, T/C [28]: 88.5% | viability, T/C [29]: 83.9% | viability, T/C [30]: 43% | viability, T/C [31]: 112% | viability, T/C [32]: 92.6% | viability, T/C [33]: 81.3% | viability, T/C [34]: 98% | viability, T/C [35]: 78.7% | viability, T/C [36]: 43.5%
